In publication PMC6263338, “Synthesis of Some Phenylpropanoid Glycosides (PPGs) and Their Acetylcholinesterase/Xanthine Oxidase Inhibitory Activities” (Molecules, 2011):
Entries after “also recorded” stand apart in the source; their conditions may differ. Like-named read-outs stand apart in the source and are kept apart here.

Assays:
[1] = biological target: T1, Xanthine Oxidase (from buttermilk) (Bos taurus, UniProt P80457); assay: In vitro XOD inhibitory activity (Xanthine Oxidase Detection Kit); assay type: biochemical; conditions: for inhibition at 1500 µg/mL: read-out: XOD inhibitory activity % inhibition (1.5 mg/mL); for XOD inhibitory activity (in words): summary of Table 1; for XOD inhibitory activity % inhibition (1.5 mg/mL): compounds in 1% DMSO, mean ± SD, triplicate
T1 construct: Xanthine Oxidase (from buttermilk, Sigma Co., Ltd. X4875); purchased Sigma Co., Ltd. X4875; host or cells: buttermilk
Method: (§1) In vitro inhibitory activity test of these glycosides against AChE and XOD was studied by using Acetylcholinesterase Detection Kit and Xanthine Oxidase Detection Kit.
Assay of the in vitro AChE/XOD inhibitory activity: The tests of in vitro inhibitory activity of these PPGs against AChE (from drosophila, Jing Peng Bio-Pesticide Co., Ltd. Shandong, P. R. China) and Xanthine Oxidase (from buttermilk, Sigma Co., Ltd. X4875) were carried out by using AChE (or XOD) Detection Kits (Jian Cheng Bioengineering Institute, Nan Jin, Jiangsu, P. R. China), following the manufacturer’s protocol. All the compounds were dissolved in 1% DMSO. […] If an inhibition of more than 30% was observed, the compound was classified as active. The active compounds were consequently tested at seven concentrations. The results were read on a microplate reader at the wavelength of 450 nm/530 nm. All the assays were performed in triplicate with three independent experiments. The IC50 values were calculated using XLfit software.

AChE (from drosophila) = biological target: T2, AChE (from drosophila) (Drosophila melanogaster, UniProt P07140); assay: In vitro AChE inhibitory activity (Acetylcholinesterase Detection Kit); assay type: biochemical; conditions: for inhibition at 1500 µg/mL: read-out: AChE inhibitory activitiy % inhibition (1.5 mg/mL); for inhibitory activities toward cholinesterase (in words): summary of Table 1
T2 construct: purchased Jing Peng Bio-Pesticide Co., Ltd. Shandong, P. R. China
Method: as §1
Assay of the in vitro AChE/XOD inhibitory activity: The tests of in vitro inhibitory activity of these PPGs against AChE (from drosophila, Jing Peng Bio-Pesticide Co., Ltd. Shandong, P. R. China) and Xanthine Oxidase (from buttermilk, Sigma Co., Ltd. X4875) were carried out by using AChE (or XOD) Detection Kits (Jian Cheng Bioengineering Institute, Nan Jin, Jiangsu, P. R. China), following the manufacturer’s protocol. All the compounds were dissolved in 1% DMSO. […] The results were read on a microplate reader at the wavelength of 450 nm/530 nm. All the assays were performed in triplicate with three independent experiments. The IC50 values were calculated using XLfit software.

[2] = read-out: XOD inhibitory activity IC50, seven concentrations, mean ± SD of triplicate independent experiments, – = not active
[3] = 1.5 mg/mL, compounds in 1% DMSO, mean ± SD, triplicate
[4] = read-out: AChE inhibitory activitiy IC50, seven concentrations, mean ± SD of triplicate independent experiments, – = not active
[5] = seven concentrations, mean ± SD of triplicate independent experiments, – = not active, read-out: AChE inhibitory activitiy IC50
[6] = seven concentrations, mean ± SD of triplicate independent experiments, – = not active

| Compound | inhibition at 1500 µg/mL [1] [%] | IC50 [1, 2] [µM] | inhibition at 1500 µg/mL (AChE (from drosophila); [3]) [%] | IC50 (AChE (from drosophila); [4]) [µM] | IC50 (AChE (from drosophila); [5]) [µM] | XOD inhibitory activity IC50 (μM) [1, 6] | AChE inhibitory activitiy IC50 (μM) (AChE (from drosophila); [6]) | other results |
| --- | --- | --- | --- | --- | --- | --- | --- | --- |
| OC[C@H]1O[C@@H](OCC=Cc2ccc(Cl)cc2)[C@H](O)[C@@H](O)[C@@H]1O [Compound 10j, 4-Chlorocinnamyl β-D-glucopyranoside] | 50 ± 2.35 | 24.3 ± 1.4 | 42 ± 3.23 | 38.3 ± 1.4 |  |  |  | XOD inhibitory activity (in words) [1]: have XOD inhibitory activity |
| COc1ccc(C=CCO[C@@H]2O[C@H](CO)[C@@H](O)[C@H](O)[C@H]2O)cc1OC [Compound 10d, 3,4-Dimethoxycinnamyl β-D-glucopyranoside] | 35 ± 3.22 |  | 43 ± 1.35 |  | 43.5 ± 0.6 |  |  | IC50 [1]: 73.5 ± 1.5 µM |
| COc1ccc(C=CCO[C@@H]2O[C@H](CO[C@@H]3OC[C@H](O)[C@H](O)[C@H]3O)[C@@H](O)[C@H](O)[C@H]2O)cc1 [Compound 22, 4-Methoxycinnamyl 6-O-(α-L-arabinopyranosyl)-β-D-glucopyranoside] | 65 ± 0.1 | 5.71 ± 0.1 | 72 ± 0.1 |  | 4.23 ± 0.1 |  |  |  |
| COc1ccc(C=CCO[C@@H]2O[C@H](CO)[C@@H](O)[C@H](O)[C@H]2O)cc1O [Compound 16d, 3-Hydroxy-4-methoxycinnamyl β-D-glucopyranoside] | 56 ± 2.34 | 16.5 ± 1.1 | 66 ± 3.45 | 10.3 ± 2 |  |  |  | XOD inhibitory activity (in words) [1]: have XOD inhibitory activity |
| 4-Trifluoromethycinnamyl β-D-glucopyranoside [Compound 10f] |  |  |  |  |  | – (not active (less than 30% inhibition at 1.5 mg/mL)) | – (not active (less than 30% inhibition at 1.5 mg/mL)) | XOD inhibitory activity % inhibition (1.5 mg/mL) [1]: 5 ± 0.22%; AChE inhibitory activitiy % inhibition (1.5 mg/mL) (AChE (from drosophila); [3]): 22 ± 2.44% |
| COc1cc(C=CCO[C@@H]2O[C@H](CO)[C@@H](O)[C@H](O)[C@H]2O)cc(OC)c1 [Compound 10c, 3,5-Dimethoxycinnamyl β-D-glucopyranoside] | 21 ± 1.21 |  | 23 ± 0.85 |  |  | – (not active (less than 30% inhibition at 1.5 mg/mL)) | – (not active (less than 30% inhibition at 1.5 mg/mL)) |  |
| OC[C@H]1O[C@@H](OCC=Cc2ccc3c(c2)OCO3)[C@H](O)[C@@H](O)[C@@H]1O [Compound 10g, 3,4-Methylenedioxycinnamyl β-D-glucopyranoside] | 13 ± 1.43 |  | 15 ± 3.55 |  |  | – (not active (less than 30% inhibition at 1.5 mg/mL)) | – (not active (less than 30% inhibition at 1.5 mg/mL)) |  |
| OC[C@H]1O[C@@H](OCC=Cc2ccc(O)cc2)[C@H](O)[C@@H](O)[C@@H]1O [Compound 16a, 4-Hydroxycinnamyl β-D-glucopyranoside] | 32 ± 1.63 |  | 34 ± 2.67 |  | 75.2 ± 1.2 |  |  | IC50 [1]: 79.3 ± 0.7 µM |
| OC[C@H]1O[C@@H](OCC=Cc2ccc(Br)cc2)[C@H](O)[C@@H](O)[C@@H]1O [Compound 10l, 4-Bromocinnamyl β-D-glucopyranoside] | 55 ± 3.67 | 19.6 ± 1.5 | 57 ± 1.22 | 22.4 ± 0.6 |  |  |  | XOD inhibitory activity (in words) [1]: have XOD inhibitory activity; inhibitory activities toward cholinesterase (in words) (AChE (from drosophila)): moderate inhibitory activities |
| OC[C@H]1O[C@@H](OCC=Cc2ccccc2F)[C@H](O)[C@@H](O)[C@@H]1O [Compound 10i, 2-Fluorocinnamyl β-D-glucopyranoside] | 24 ± 1.32 |  | 18 ± 2.11 |  |  | – (not active (less than 30% inhibition at 1.5 mg/mL)) | – (not active (less than 30% inhibition at 1.5 mg/mL)) |  |
| COc1cc(C=CCO[C@@H]2O[C@H](CO)[C@@H](O)[C@H](O)[C@H]2O)ccc1O [Compound 16c, 4-Hydroxy-3-methoxycinnamyl β-D-glucopyranoside] | 23 ± 0.93 |  |  | 25.7 ± 0.7 |  | – (not active (less than 30% inhibition at 1.5 mg/mL)) |  | inhibition at 1500 µg/mL (AChE (from drosophila)): 54 ± 2.34% |
| O[C@@H]1[C@@H](O)[C@H](OCC=Cc2ccccc2)O[C@H](CO[C@@H]2OC[C@@H](O)[C@H](O)[C@H]2O)[C@H]1O [Compound 21, Cinnamyl 6-O-(β-D-xylopyranosyl)-β-D-glucopyranoside] | 74 ± 0.12 | 4.56 ± 0.1 | 82 ± 0.11 | 3.71 ± 0.1 |  |  |  |  |
| COc1cccc(C=CCO[C@@H]2O[C@H](CO)[C@@H](O)[C@H](O)[C@H]2O)c1OC [Compound 10e, 2,3-Dimethoxycinnamyl β-D-glucopyranoside] | 22 ± 0.85 |  | 34 ± 4.36 | 71.2 ± 2.8 |  | – (not active (less than 30% inhibition at 1.5 mg/mL)) |  |  |
| 3-Bromo-4-ethoxy-5-methoxycinnamylcinnamyl β-D-glucopyranoside [Compound 10n] |  |  |  |  | 87.3 ± 2.1 |  |  | XOD inhibitory activity % inhibition (1.5 mg/mL) [1]: 28 ± 1.74%; IC50 ([1]; seven concentrations, mean ± SD of triplicate independent experiments, – = not active, read-out: XOD inhibitory activity IC50): 97.3 ± 0.8 µM; AChE inhibitory activitiy % inhibition (1.5 mg/mL) (AChE (from drosophila); [3]): 36 ± 3.55% |
| C[C@@H]1O[C@@H](OC[C@H]2O[C@@H](OCC=Cc3ccccc3)[C@H](O)[C@@H](O)[C@@H]2O)[C@H](O)[C@H](O)[C@H]1O [Compound 23, Cinnamyl 6-O-(α-L-rhamnopyranosyl)-β-D-glucopyranoside] | 60 ± 0.01 | 8.21 | 81 ± 0.05 |  | 2.05 |  |  |  |
| COc1ccccc1C=CCO[C@@H]1O[C@H](CO)[C@@H](O)[C@H](O)[C@H]1O [Compound 10b, 2-Methoxycinnamyl β-D-glucopyranoside] | 12 ± 3.12 |  | 62 ± 4.53 |  |  | – (not active (less than 30% inhibition at 1.5 mg/mL)) |  | IC50 (AChE (from drosophila)): 15.5 ± 2.1 µM; inhibitory activities toward cholinesterase (in words) (AChE (from drosophila)): moderate inhibitory activities; also recorded: more potent than the corresponding unsubstituted compound 10m |
| COc1ccc(C=CCO[C@@H]2O[C@H](CO)[C@@H](O)[C@H](O)[C@H]2O)cc1 [Compound 10a, 4-Methoxycinnamyl β-D-glucopyranoside] | 10 ± 2.22 |  | 15 ± 3.27 |  |  | – (not active (less than 30% inhibition at 1.5 mg/mL)) | – (not active (less than 30% inhibition at 1.5 mg/mL)) |  |
| O[C@@H]1[C@@H](O)[C@H](OC/C=C/c2ccccc2)O[C@H](CO[C@@H]2OC[C@H](O)[C@H](O)[C@H]2O)[C@H]1O [Compound 20, Rosavin] | 73 ± 0.02 |  | 85 ± 0.21 |  | 1.72 ± 0.1 |  |  | IC50 [1]: 5.55 µM |
| OC[C@H]1O[C@@H](OCC=Cc2ccc(F)c(F)c2)[C@H](O)[C@@H](O)[C@@H]1O [Compound 10k, 3,4-Difluorocinnamyl β-D-glucopyranoside] | 37 ± 2.78 | 55.4 ± 1.3 | 43 ± 2.31 |  | 35.5 ± 1.1 |  |  |  |
| OC[C@H]1O[C@@H](OCC=Cc2cccc(O)c2)[C@H](O)[C@@H](O)[C@@H]1O [Compound 16b, 3-Hydroxycinnamyl β-D-glucopyranoside] | 41 ± 2.22 | 29.6 ± 1.2 | 75 ± 2.12 | 7.62 ± 1.1 |  |  |  | XOD inhibitory activity (in words) [1]: have XOD inhibitory activity |
| COc1cc(C=CCO[C@@H]2O[C@H](CO)[C@@H](O)[C@H](O)[C@H]2O)cc(OC)c1OC [Compound 10h, 3,4,5-Trimethoxycinnamyl β-D-glucopyranoside] | 33 ± 2.16 |  | 17 ± 4.33 |  |  |  | – (not active (less than 30% inhibition at 1.5 mg/mL)) | IC50 [1]: 69.3 ± 1.3 µM |
| OC[C@H]1O[C@@H](OC/C=C/c2ccccc2)[C@H](O)[C@@H](O)[C@@H]1O [Compound 10m, Cinnamyl β-D-glucopyranoside] | 38 ± 2.83 | 93.2 ± 1.4 | 16 ± 0.44 |  |  |  | – (not active (less than 30% inhibition at 1.5 mg/mL)) |  |
